Source: patent publication US20250082657A1, “CONJUGATES OF CHEMOTHERAPY AGENTS AND TISSUE-BINDING SMALL MOLECULES, COMPOSITIONS AND METHODS THEREOF” (CANWELL BIOTECH LIMITED, priority 2022, published 2025)
Where two headings read alike, the source gives them in different places.

Columns and labels:
[1] = test system: U87MG; test: Cellular IC50 in U87MG tumor cell line (CellTiter-Glo); format: cell-based; conditions: U87MG cells, 72 h incubation
Description: (§1) The cellular inhibition was determined in three assays: U87MG, A549 and MC38. Cells were recovered and cultured in appropriate medium supplemented with 10% fetal bovine serum and 100 U/mL penicillin G sodium, and maintained in cell incubators (37° C., 5% CO2). Before testing, cells in culture dishes were rinsed with Phosphate Buffered Solution, detached with Trypsin. Dilute and adjust the cell number with the culture medium, add the cell suspension to the 96 well cell plate. Cells were maintained in incubators overnight. In T0 control plate, cells were added with 100 μL CellTiter-Glo reagent, balance at room temperature for 10 minutes, and read the chemiluminescence value with envision.
(§2) In the testing plate, compounds were dissolved with corresponding solvent and diluted gradiently. Diluted compound solution was added to a 96 well plate with cells. After incubation of 72 h, cells were added with 100 μL CellTiter-Glo reagent, balanced at room temperature for 10 minutes, and read the chemiluminescence value with envision. IC50 was calculated using the GraphPad Prism software package (Prism 6 for Windows, Version 6.0, GraphPad Software Inc., San Diego, CA).

[2] = test system: A549; test: Cellular IC50 in A549 tumor cell line (CellTiter-Glo); format: cell-based; conditions: A549 cells, 72 h incubation
Description: as §1, §2

[3] = test system: MC38; test: Cellular IC50 in MC38 tumor cell line (CellTiter-Glo); format: cell-based; conditions: 72 h incubation
Description: as §1, §2

[4] = buffer
Description: (§3) Test compounds spiking solution: 1 mM test compounds spiking solution A: Add 10 μL of 10 mM test compounds stock solution to 90 μL DMSO. • 2. Add 396 μL of buffer into the tubes designated for different time points. Pre-warm the samples at 37° C. for 10 min. • 3. Add 4 μL of spiking solution A into the wells designated as 0 min (or 15, 45, 90, 120 min) containing 396 μL of buffer, then start timing count down. • 4. At each time point, add 1200 μL ACN containing IS into the tubes. • 5. Samples are centrifuged at 10,000 rpm for 5 min, then 100 μL of supernatant are ready for LC-MS/MS analysis.

[5] = male, CD-1, mouse, in vivo
Description: (§4) Pharmacokinetic parameters were determined in male CD-1 mice (Shanghai Jihui Laboratory Animal Care Co., Ltd., 6-8 weeks old). Animals were maintained under a 12 hr light/dark cycle. Animals had free access to food and water during the study.
(§5) For intravenous, compounds were formulated as a solution (in 5% DMSO+10% Solutol HS15+85% (20% HP-β-CD in water)) in 5 mL/kg dosing volume and administered via tail vein. For subcutaneous, compounds were formulated as a solution (in 5% DMSO+10% Solutol HS15+85% (20% HP-β-CD in water)) in 10 mL/kg dosing volume or (in 0.5% MC+1% Pluronic F68 in water) in 50 μL/mouse dosing volume and administered via subcutaneous puncture.
(§6) Semi-serial blood samples (about 110 μL) were taken from animal at 0.083, 0.25, 0.5, 1, 2, 4, 8 and 24 hr for IV group and 0.5, 2, 4, 8, 24, 48 and 96 hr for SC group. Samples were held on ice for no longer than 15 minutes before centrifugation (2000 g, 5 min, 4° C.) within 15 minutes post sampling. Plasma was snap frozen in dry ice and then transferred into −70° C. freezer for long term storage until LC-MS/MS analysis.
(§7) Tissue collection for SC group at 0.5, 2, 4, 8, 24, 48 and 96 hr. After animals were anesthetized and exsanguinated, tissue samples (including muscle and skin) were collected and weighted, and then snap frozen in liquid nitrogen and further stored at −70° C. for long term storage until LC-MS/MS analysis. Tissue samples were homogenized under freezing conditions.
(§8) PK parameters were generated from LC-MS/MS data using Phoenix WinNonlin 8.2 software.

[6] = in vivo; conditions: male, CD-1, mouse, sc, 5 mg/kg
Description: as §4, §5, §6, §7, §8

[7] = Pharmacokinetics in male CD-1 mice (plasma and tissue, LC-MS/MS); conditions: CD-1, mouse
Description: as §4, §5, §6, §7, §8

[8] = physchem; conditions: buffer, pH 7.4
Description: as §3

[9] = Chemical stability in PBS (pH 7.4); conditions: PBS buffer
Description: as §3

[10] = Mus musculus, MC-38, MC38 cells

## CCc1c2c(nc3ccc(OC(=O)[C@@H](C)c4ccc(CC(C)C)cc4)cc13)-c1cc3c(c(=O)n1C2)COC(=O)[C@]3(O)CC [Compound 8, (S)-4,11-diethyl-4-hydroxy-3,14-dioxo-3,4,12,14-tetrahydro-1H-pyrano [3′,4′:6,7]indolizino[1,2-b]quinolin-9-yl(S)-2-(4-isobutylphenyl)propanoate]
[1]; Homo sapiens, U-87 MG
  IC50: 13.4 nM
[2]; Homo sapiens
  IC50: 208 nM
[3]; [10]
  IC50: 22.7 nM
[4]
  Stability (PBS, pH 7.4) T½ (min): ∞
[5]; sc, 5 mg/kg
  T½: >96 h
[6]
  AUC(0-t): 11800 µg·h/mL
  half-life: 44.1 h

## CC(C)Cc1ccc([C@H](C)C(=O)NCCCC[N+]23CC(=O)O[B-]2([C@H](CC(C)C)NC(=O)[C@H](Cc2ccccc2)NC(=O)c2cnccn2)OC(=O)C3)cc1 (stereo partly drawn) [Compound 16, N-((S)-1-(((R)-1-(6-(4-((S)-2-(4-isobutylphenyl)propanamido)butyl)-4,8-dioxo-1,3,6,2-dioxazaborocan-2-yl)-3-methylbutyl)amino)-1-oxo-3-phenylpropan-2-yl)pyrazine-2-carboxamide]
[1]; Homo sapiens, U-87 MG
  IC50: 7.27 nM
[2]; Homo sapiens
  IC50: 10.7 nM
[3]; [10]
  IC50: 15.9 nM
[7]; in vivo, sc, 1 mg/kg
  half-life: 93.2 h
[7]; plasma, sc, 1 mg/kg
  AUC(0-t): 0.165 µg·h/mL
[7]; tissue (muscle or skin, not specified) / plasma, subcutaneous, 1 mg/kg
  Kp: 365
[7]; tissue (muscle or skin, not specified), sc, 1 mg/kg
  AUC(0-t): 60.3 µg·h/mL

## CC(C)C[C@H](NC(=O)[C@H](Cc1ccccc1)NC(=O)c1cnccn1)B(O)O [Compound 9-7, Valcade, reference compound]
[1]; Homo sapiens, U-87 MG
  IC50: 6.89 nM
[2]; Homo sapiens
  IC50: 9.36 nM
[3]; [10]
  IC50: 16.3 nM

## CC(C)Cc1ccc([C@H](C)C(=O)O)cc1 [Compound 8-1]
[3]; [10]
  IC50: > 10000 nM

## CCc1c2c(nc3ccc(O)cc13)-c1cc3c(c(=O)n1C2)COC(=O)[C@]3(O)CC [Compound 1-1, SN-38, reference compound]
[1]
  IC50: 13.6 nM
[2]
  IC50: 99.5 nM
[3]; MC38 cells
  IC50: 21.2 nM

## CC(=O)O[C@@]12CO[C@@H]1C[C@H](O)[C@@]1(C)C(=O)[C@H](O)C3=C(C)[C@@H](OC(=O)[C@H](OC(=O)CCCc4ccc(I)cc4)[C@@H](NC(=O)OC(C)(C)C)c4ccccc4)C[C@@](O)([C@@H](OC(=O)c4ccccc4)[C@H]21)C3(C)C [Compound 30, (2aR,4S,4aS,6R,9S,11 S,12S,12aR,12bS)-12b-acetoxy-9-(((2R,3S)-3-((tert-butoxycarbonyl)amino)-2-((4-(4-iodophenyl)butanoyl)oxy)-3-phenylpropanoyl)oxy)-4,6,11-trihydroxy-4a,8,13,13-tetramethyl-5-oxo-2a,3,4,4a,5,6,9,10,11,12,12a,12b-dodecahydro-1H-7,11-methanocyclodeca[3,4]benzo[1,2-b]oxet-12-yl benzoate]
[8]
  half-life: 13.4 h

## CCc1c2c(nc3ccc(OC(=O)CCCc4ccc(I)cc4)cc13)-c1cc3c(c(=O)n1C2)COC(=O)[C@]3(O)CC [Compound 1]
[5]; 3 mg/kg
  Tissue/Plasma ratio: 171.8
  T½: 10.3 h
[8]
  half-life at 10 µM: 19.7 h

## CCc1c2c(nc3ccc(OC(=O)N(C)CCc4ccc(I)cc4)cc13)-c1cc3c(c(=O)n1C2)COC(=O)[C@]3(O)CC [Compound 4, (S)-4,11-diethyl-4-hydroxy-3,14-dioxo-3,4,12,14-tetrahydro-1H-pyrano[3′,4′:6,7]indolizino[1,2-b]quinolin-9-yl(4-iodophenethyl)(methyl)carbamate]
[9]
  half-life at 10 µM: 3.58 h

## O=C(CCCc1ccc(I)cc1)OCn1cc(F)c(=O)[nH]c1=O [Compound 28, (5-fluoro-2,4-dioxo-3,4-dihydropyrimidin-1(2H)-yl)methyl 4-(4-iodophenyl) butanoate]
[9]
  half-life at 10 µM: 8.4 h
[7]; tissue (muscle or skin, not specified which), sc, 10 mg/kg
  AUC(0-t): 37.6 µg·h/mL
[7]; tissue (muscle or skin, not specified which), subcutaneous, 10 mg/kg
  half-life: 11.3 h

## CCc1c2c(nc3ccc(OC(=O)NCCc4ccc(I)cc4)cc13)-c1cc3c(c(=O)n1C2)COC(=O)[C@]3(O)CC [Compound 3, (S)-4,11-diethyl-4-hydroxy-3,14-dioxo-3,4,12,14-tetrahydro-1H-pyrano [3′,4′:6,7]indolizino[1,2-b]quinolin-9-yl(4-iodophenethyl)carbamate]
[9]
  half-life at 10 µM: 0.85 h

## CCc1c2c(nc3ccc(OC(=O)C(C)CCc4ccc(I)cc4)cc13)-c1cc3c(c(=O)n1C2)COC(=O)[C@]3(O)CC (stereo partly shown) [Compound 2]
[8]
  half-life at 10 µM: 23.1 h
